Measurements reported in article PMC9405973, “Altered Conformational Landscape upon Sensing Guanine Nucleotides in a Disease Mutant of Elongation Factor-like 1 (EFL1) GTPase” (Biomolecules, 2022).

Experiments:
Efl1 R1086Q•Sdo1 = target: T1, Efl1 R1086Q•Sdo1 (Saccharomyces cerevisiae, UniProt P53893, R1086Q); assay: ITC: binding of guanine nucleotides to pre-formed complex Efl1 R1086Q•Sdo1
T1 construct: made in house; host or cells: Efl1: Saccharomyces cerevisiae; Sdo1: Escherichia coli C41
Experimental: (§1) All calorimetric measurements were carried out using MicroCal^TM iTC200 System (GE Healthcare, Northampton, MA, USA) in a temperature range of 25–35 °C. Experiments were performed in a buffer consisting of 50 mM Tris-HCl (pH 8.0), 150 mM NaCl, 100 µM DTT, and 5% glycerol. In the titrations with Mg^2+-bound nucleotides, both the ligand and protein solutions contained 5 mM MgCl2. In the case of titrations with Mg^2+-free nucleotide, both the ligand and protein solutions were supplemented with 2 mM EDTA to sequester any residual trace of metal ions in solution. Protein samples and ligands were prepared in the exact same buffer prior to each titration. Protein concentration in the cell comprised 30–50 µM GTPase, while the ligand concentration in the syringe was 2–3 mM for GTP, MgGTP, GDP, and MgGDP. To ensure measuring the interaction of the complex Efl1 R1086Q•Sdo1 with the nucleotide, an eight-fold concentration excess of Sdo1 was used compared with that of the enzyme. […] The titration schedule consisted of 15–20 consecutive injections of the ligand with 5 min intervals between injections and a stirring rate of 700 rpm. The dilution heat of the ligand was obtained by adding the ligand to a buffer solution under identical conditions and with the same injection schedule used for the protein sample. All samples were degassed for 10 min prior to the experiment.
(§2) The binding isotherms obtained for the isolated GTPase in the presence of Mg(II) were analysed using a ternary model in which the protein can bind to the free nucleotide (G(D)TP) or that bound to one magnesium ion (MgG(D)TP); additionally, GTP may also exist in the form of Mg2GTP, which is not recognised by the protein. The derivation of this coupled-equilibria model can be reviewed in [6, 31]. The binding constant (Kb), the enthalpy change (∆Hb), and the stoichiometry (n) were obtained with the non-linear routines implemented in Origin 5.0 (OriginLab, Co., Northampton, MA, USA) using a one-binding-site model as described in [32, 33]. The heterotropic cooperativity for the binding of guanine nucleotides and Sdo1 to Efl1 R1086Q were calculated as previously described in [6, 32]. The cooperative effects of Mg(II) on the binding of guanine nucleotides to Efl1 R1086Q alone and bound to Sdo1 were calculated as follows:κ = KE-MG/KE-G κ = KES-MG/KES-G Δh = ΔHE-MG − ΔHE-G Δh = ΔHES-MG − ΔHES-G where subscripts E-MG and E-G stand for the association of the metal-bound and metal-free guanine nucleotide with mutant Efl1, respectively. Corresponding expressions applied to the heterotropic cooperativity of the binding of nucleotides to the preformed complex, Efl1•Sdo1 (ES).
(§3) The impact of Sdo1 on the binding of Efl1 R1086Q to guanine nucleotides in the presence of magnesium ions is contained in KES-MG and ΔHES-MG relative to the KE-S and ΔHE-S values; analogous ratios report the effects in the absence of Mg(II):κ = KES-MG/KE-S κ = KES-G/KE-G Δh = ΔHES-MG − ΔHE-S Δh = ΔHES-G − ΔHE-G
(§4) The corresponding cooperative entropy change was calculated as:TΔs = Δh − Δg = Δh + RTlnκ
(§5) The detailed methodology and equations to compute the changes in the accessible surface area (∆ASA) of the GTPase upon binding to nucleotides and the ∆S energetic-based parameters are reported in [6]. Briefly, the water-accessible areas (ASAs) were computed using programme NACCESS, while the changes in accessible surface area (ΔASA) upon the formation of each GTPase–nucleotide complex were estimated considering the difference between the complex and the sum of the free interacting partners. The calculated polar (ΔASAp) and apolar (ΔASAap) area changes were subsequently used to estimate the free molecular partners. […]

Efl1 R1086Q = target: T2, Efl1 R1086Q (Saccharomyces cerevisiae, UniProt P53893, R1086Q); assay: Isothermal titration calorimetry (ITC): binding of guanine nucleotides or Sdo1 to Efl1 R1086Q; conditions: for Nconfres (number of residues changing conformation, absolute value) / ΔCpb: +Mg^2+; for Nconfres (number of residues changing conformation, absolute value): 30 °C; for ΔCpb: guanine nucleotide, from ΔHb at 25–35 °C
T2 construct: made in house; host or cells: Saccharomyces cerevisiae
Experimental: as §1, §2, §3, §4, §5

wild-type Efl1 = conditions: guanine nucleotide, +Mg^2+; cited from earlier work
Efl1 R1086Q P151L = target: T3, Efl1 R1086Q P151L (Saccharomyces cerevisiae, UniProt P53893, P151L/R1086Q); assay: ITC: binding of GTP to double mutant Efl1 R1086Q P151L; conditions: +Mg^2+, from ΔHb at 25–35 °C
T3 construct: made in house; host or cells: Saccharomyces cerevisiae

[1] = Enzyme kinetics of GTP hydrolysis (PNP coupled assay, Michaelis–Menten); assay type: biochemical, Saccharomyces cerevisiae; conditions: enzyme in complex with Sdo1 (25 µM Sdo1)
Experimental: Finally, we measured the enzyme kinetics of mutant Efl1 R1086Q as an isolated enzyme and bound to Sdo1 using an enzymatic coupled assay with a purine nucleoside phosphorylase (PNP) enzyme. This analysis was extended to another disease mutation (EFL1 M882K) also located in domain IV of the GTPase using the equivalent yeast variant, Efl1 L910K [17]. The Km and kcat kinetic parameters were calculated using non-linear regression assuming a Michaelis–Menten model (Supplementary Table S1). […] The catalytic constant for mutant R1086Q and the wild-type enzyme consisted of 0.67 min^−1, and it was 0.58 min^−1 for mutant Efl1 L910K. […] In line with the proposed role of Sdo1 as a guanine exchange factor of Efl1, previous results have shown that the interaction of wild-type Efl1 with Sdo1 impacted its Km for GTP, decreasing its value 2–3-fold. The Km values for the complexes formed between Sdo1 and Efl1 mutants decreased by half with respect to their cognate-free counterpart and differed from each other. […] The measured Km value comprises all the microscopic rate constants of the individual reactions occurring in the enzyme, which include the binding to the substrate and product and the corresponding conformational changes.
Hydrolysis of GTP was measured using the Enzchek Phosphate Assay kit (Molecular Probes) as described by Webb. Standard reactions consisted of 100 µL containing 6 µM of Efl1 R1086Q and Efl1 L910K, 0.3 mM MESG, 1.0 U purine nucleoside phosphorylase (PNP) and the indicated amounts of GTP. Measurements done in the presence of effector protein contained 25 µM of Sdo1.
The reaction buffer consisted of 50 mM HEPES -KOH pH 7.5, 150 mM NaCl, 5 mM MgCl2.
Reactions were initiated and the GTPase was added after 3 min. Time courses were followed by recording the change in absorbance at 360 nm in a Cary 60 UV -Vis spectrophotometer (Agilent Technologies). Background absorbance was recorded prior to the addition of the GTPase and subtracted from the sample signals. The slope of the measured time courses corresponded to the GTP hydrolysis rate. The concentration of releas ed phosphate was estimated using a molar absorption coefficient at 360 nm of 14,386 M -1 cm-1 previously described in [2]. Data were analysed by nonlinear regression to the M ichaelis-Menten equation with the program Origin Version 5.0 (OriginLab, Co., Northampton, MA). […]
M HEPES-KOH pH 7.4, 2.5 mM magnesium acetate, 50 mM sucrose, 2 mM DTT, 0.1 mM PMSF, 0.1 mM benzamidine, 8 mM putrescine, 1 mM spermidine. […]
Dilution at the end of each titration was no longer than 2.5% of the initial volume. Data were corrected for the background signal by subtracting the fluorescence of the same ligand concentration without the GTPase in the reaction mixture.
Maximum emission at 440 nm was replotted as a function of nucleotide concentration and analysed

T3 sequence (P53893 whole entry P151L/R1086Q): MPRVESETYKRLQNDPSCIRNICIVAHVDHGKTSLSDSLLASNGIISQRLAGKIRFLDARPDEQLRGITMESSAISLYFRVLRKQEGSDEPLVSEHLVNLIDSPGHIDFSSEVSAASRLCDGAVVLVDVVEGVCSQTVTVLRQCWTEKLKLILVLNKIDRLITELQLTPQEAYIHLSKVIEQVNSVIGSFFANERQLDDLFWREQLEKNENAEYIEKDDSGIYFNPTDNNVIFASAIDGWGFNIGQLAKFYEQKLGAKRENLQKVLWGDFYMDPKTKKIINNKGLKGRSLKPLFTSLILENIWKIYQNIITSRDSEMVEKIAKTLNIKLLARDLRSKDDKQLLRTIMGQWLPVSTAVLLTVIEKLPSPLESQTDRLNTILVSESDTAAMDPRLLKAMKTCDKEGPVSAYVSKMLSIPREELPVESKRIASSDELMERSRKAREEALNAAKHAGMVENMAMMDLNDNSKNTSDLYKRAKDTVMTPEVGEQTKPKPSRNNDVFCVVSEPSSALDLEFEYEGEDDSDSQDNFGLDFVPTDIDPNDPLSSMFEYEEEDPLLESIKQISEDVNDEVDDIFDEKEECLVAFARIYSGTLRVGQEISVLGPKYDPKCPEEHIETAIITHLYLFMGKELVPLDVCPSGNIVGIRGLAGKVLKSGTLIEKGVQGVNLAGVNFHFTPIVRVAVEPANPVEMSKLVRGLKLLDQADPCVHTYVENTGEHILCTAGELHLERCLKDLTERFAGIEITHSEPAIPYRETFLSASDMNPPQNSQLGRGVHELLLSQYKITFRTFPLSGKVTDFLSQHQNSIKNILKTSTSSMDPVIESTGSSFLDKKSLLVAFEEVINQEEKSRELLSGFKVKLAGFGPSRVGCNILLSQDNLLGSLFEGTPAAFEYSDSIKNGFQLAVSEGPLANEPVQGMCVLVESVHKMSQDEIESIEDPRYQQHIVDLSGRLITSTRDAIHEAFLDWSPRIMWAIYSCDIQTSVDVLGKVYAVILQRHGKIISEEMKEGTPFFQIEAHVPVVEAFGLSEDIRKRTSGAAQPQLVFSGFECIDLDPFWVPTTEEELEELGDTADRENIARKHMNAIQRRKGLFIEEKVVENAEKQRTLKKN

| Molecule | ΔΔCpb (Efl1 R1086Q•Sdo1 vs isolated enzyme) (Efl1 R1086Q•Sdo1; presence of magnesium ions) [cal mol^−1 K^−1] | increase in binding enthalpy as temperature increased (Efl1 R1086Q; 25 °C to 35 °C) | Nconfres (number of residues changing conformation, absolute value) (Efl1 R1086Q) | ΔCpb (Efl1 R1086Q) [cal mol^−1 K^−1] | surface buried by the conformational change (Efl1 R1086Q; refers to Table 3, 30 °C) | ΔCpb (wild-type Efl1) [cal mol^−1 K^−1] | ΔCpb (Efl1 R1086Q P151L) [cal mol^−1 K^−1] | Nconfres (number of residues changing conformation, absolute value) (Efl1 R1086Q•Sdo1; +Mg^2+, 30 °C) | ΔCpb (Efl1 R1086Q•Sdo1; +Mg^2+, from ΔHb at 25–35 °C) [cal mol^−1 K^−1] | additional residues modified with respect to the isolated enzyme (Efl1 R1086Q•Sdo1; presence of magnesium ions) | fold increase in affinity from 25 °C to 35 °C (Efl1 R1086Q; 35 °C vs 25 °C) [fold] | kcat [1] [s⁻¹] |
| --- | --- | --- | --- | --- | --- | --- | --- | --- | --- | --- | --- | --- |
| MgGDP | −45 | ~ 3 kcal mol^−1 | 21 | −270 | ~ 1000 Å | – | – | – | – | – | – | – |
| MgGTP | −410 | – | 3 | 10 | – | −560 | −220 | 36 | −400 | 40 | 1.2 | – |
| Efl1 R1086Q • Sdo1: binary complex of mutant GTPase Efl1 R1086Q and effector Sdo1 (protein, UniProt P53893 1-1110; Q07953 1-250, looked up, variant R1086Q, binary complex) Ribosome assembly protein 1: MPRVESETYKRLQNDPSCIRNICIVAHVDHGKTSLSDSLLASNGIISQRLAGKIRFLDARPDEQLRGITMESSAISLYFRVLRKQEGSDEPLVSEHLVNLIDSPGHIDFSSEVSAASRLCDGAVVLVDVVEGVCSQTVTVLRQCWTEKLKPILVLNKIDRLITELQLTPQEAYIHLSKVIEQVNSVIGSFFANERQLDDLFWREQLEKNENAEYIEKDDSGIYFNPTDNNVIFASAIDGWGFNIGQLAKFYEQKLGAKRENLQKVLWGDFYMDPKTKKIINNKGLKGRSLKPLFTSLILENIWKIYQNIITSRDSEMVEKIAKTLNIKLLARDLRSKDDKQLLRTIMGQWLPVSTAVLLTVIEKLPSPLESQTDRLNTILVSESDTAAMDPRLLKAMKTCDKEGPVSAYVSKMLSIPREELPVESKRIASSDELMERSRKAREEALNAAKHAGMVENMAMMDLNDNSKNTSDLYKRAKDTVMTPEVGEQTKPKPSRNNDVFCVVSEPSSALDLEFEYEGEDDSDSQDNFGLDFVPTDIDPNDPLSSMFEYEEEDPLLESIKQISEDVNDEVDDIFDEKEECLVAFARIYSGTLRVGQEISVLGPKYDPKCPEEHIETAIITHLYLFMGKELVPLDVCPSGNIVGIRGLAGKVLKSGTLIEKGVQGVNLAGVNFHFTPIVRVAVEPANPVEMSKLVRGLKLLDQADPCVHTYVENTGEHILCTAGELHLERCLKDLTERFAGIEITHSEPAIPYRETFLSASDMNPPQNSQLGRGVHELLLSQYKITFRTFPLSGKVTDFLSQHQNSIKNILKTSTSSMDPVIESTGSSFLDKKSLLVAFEEVINQEEKSRELLSGFKVKLAGFGPSRVGCNILLSQDNLLGSLFEGTPAAFEYSDSIKNGFQLAVSEGPLANEPVQGMCVLVESVHKMSQDEIESIEDPRYQQHIVDLSGRLITSTRDAIHEAFLDWSPRIMWAIYSCDIQTSVDVLGKVYAVILQRHGKIISEEMKEGTPFFQIEAHVPVVEAFGLSEDIRKRTSGAAQPQLVFSGFECIDLDPFWVPTTEEELEELGDTADRENIARKHMNAIQRRKGLFIEEKVVENAEKQRTLKKN Ribosome maturation protein …: MPINQPSGQIKLTNVSLVRLKKARKRFEVACYQNKVQDYRKGIEKDLDEVLQIHQVFMNVSKGLVANKEDLQKCFGTTNVDDVIEEIMHKGEIQLSEKERQLMLNKVNNEMLTIVSAKCINPVSKKRYPPTMIHKALQELKFSPVINKPAKLQALEAIKLLVSKQIIPIVRAKMKVKVAISEPSRQPELIEKISKLIASSPGESTKPELDPWTCTGLIDPVNYRDLMTLCDKKGTVQVLDMAVIDNTTHN | – | – | – | – | – | – | – | – | – | – | – | 0.0112 |
